Experiment [1] relates to Botryotinia fuckeliana syn. Botrytis cinerea. As to the kind of experiment: Botryotinia fuckeliana syn. Botrytis cinerea (gray mould), liquid culture growth inhibition. Format: cell-based. Conditions: PDB nutrient broth, 24° C., 72 hrs, photometric, vs untreated control. The procedure: Conidia of the fungus from cryogenic storage were directly mixed into nutrient broth (PDB potato dextrose broth). A DMSO solution of the test compounds was placed into a microtiter plate (96-well format) and the nutrient broth containing the fungal spores was added to it. The test plates were incubated at 24° C. and the inhibition of growth was determined photometrically after 72 hrs.

Experiment [2] has as its system Glomerella lagenarium syn Colletotrichum lagenarium. Kind of experiment: Glomerella lagenarium syn. Colletotrichum lagenarium (anthracnose), liquid culture growth inhibition. Format: cell-based. The following applies: Colletotrichum orbiculare, PDB nutrient broth, 24° C., 72 hrs, 620 nm, vs untreated control. The procedure: (§1) Conidia of the fungus from cryogenic storage were directly mixed into nutrient broth (PDB potato dextrose broth). A DMSO solution of the test compounds was placed into a microtiter plate (96-well format) and the nutrient broth containing the fungal spores was added to it. The test plates were incubated at 24° C. and the inhibition of growth was determined photometrically after 72 hrs at 620 nm.

Experiment [3] concerns Sclerotinia sclerotiorum. Kind of experiment: Sclerotinia sclerotiorum (cottony rot, white mold), liquid culture growth inhibition. Conditions: PDB nutrient broth, 24° C., 72 hrs, 620 nm, vs untreated control. Format: cell-based. The procedure:
Mycelial fragments of the fungus prepared from a fresh liquid culture were directly mixed into nutrient broth (PDB potato dextrose broth). A DMSO solution of the test compounds was placed into a microtiter plate (96-well format) and the nutrient broth containing the fungal spores was added to it. The test plates were incubated at 24° C. and the inhibition of growth was determined photometrically after 72 hrs at 620 nm.

Experiment [4] deals with Botryotinia fuckeliana syn. Botrytis cinerea. As to the kind of experiment: Botryotinia fuckeliana syn. Botrytis cinerea (grey mold on tomato), tomato plants. Format: in vivo. The following applies: tomato plants cv. Roter Gnom, inoculated two days after application, leaf area covered by disease 5-6 days after application. The procedure: 4-week old tomato plants cv. Roter Gnom are treated sprayed in a spray chamber with the formulated test compound diluted in water. The test plants are inoculated by spraying them with a spore suspension two days after application. The inoculated test plants are incubated at 20° C. and 95% rh in a greenhouse and the percentage leaf area covered by disease is assessed when an appropriate level of disease appears on untreated check plants (5-6 days after application).

The subject of experiment [5] is Monographella nivalis syn. Microdochium nivale, Fusarium nivale. As to the kind of experiment: Monographella nivalis syn. Microdochium nivale (snow mould, foot rot), liquid culture growth inhibition. Format: cell-based. The following applies: PDB nutrient broth, 24° C., 72 hrs, 620 nm, vs untreated control. As to the method: as §1
Experiment [6] relates to Phaeosphaeria nodorum syn. Septoria nodorum. Kind of experiment: Phaeosphaeria nodorum syn. Septoria nodorum (glume blotch of wheat), wheat leaf segments, preventive. In kind it is in vivo. The following applies: Parastagonospora nodorum, foliar, 96 h, assessed 4 dpi, vs untreated control. The procedure: Wheat leaf segments are placed on agar in multiwell plates (24-well format) and sprayed with test solutions. After drying, the leaf disks are inoculated with a spore suspension of the fungus. After appropriate incubation the activity of a compound is assessed 4 dpi (days after inoculation) as preventive fungicidal activity.
The following compounds from Table T1 gave at least 80% control of Phaeosphaeria nodorum at 200 ppm when compared to untreated control under the same conditions, which sowed extensive disease development: • 1.1, 1.3, 1.7, 1.14, 1.39, 1.41, 1.86, 1.87, 1.92, 1.94, 1.95.

The term inhibition of growth denotes the change of the read-out against control, counted positive when it falls. As for `Cc1cccc(Oc2cnc(C)cc2C(=O)NCCc2ccc(Cl)cc2Cl)c1` [Compound 1.2, N-[2-(2,4-dichlorophenyl)ethyl]-2-methyl-5-(3-methylphenoxy) pyridine-4-carboxamide], the inhibition of growth at 20 ppm in experiment [1], in experiment [2] and in experiment [3] was no less than 80% throughout.
What is called pest or weed control is the degree to which the test organism was suppressed or injured, in per cent. Low values mean a weak effect, high ones a strong effect. As for `O=C(NCC(F)c1ccc(Cl)cc1Cl)c1cc(Br)ncc1Oc1cccc(C2CC2)c1` (stereo not shown) [Compound 1.5, 2-bromo-5-(3-cyclopropyl-phenoxy)-N-[2-(2,4-dichlorophenyl)-2-fluoro-ethyl]pyridine-4-carboxamide], the inhibition of growth at 20 ppm in experiment [1], in experiment [2] and in experiment [3] was no less than 80% throughout. In experiment [4], this compound returned a pest or weed control at 200 ppm of no less than 50%.
Consider `O=C(NCC(F)c1ccc(Cl)cc1Cl)c1c(Br)cncc1Oc1cccc(C2CC2)c1` (stereo not shown) [Compound 1.8, 3-bromo-5-(3-cyclopropyl-phenoxy)-N-[2-(2,4-dichlorophenyl)-2-fluoro-ethyl]pyridine-4-carboxamide], for which the inhibition of growth at 20 ppm in experiment [1], in experiment [2] and in experiment [3] was no less than 80% throughout. The pest or weed control at 200 ppm in experiment [4] was no less than 50%.
With `Cc1cc(C(=O)NCCc2ccc(Cl)cc2Cl)c(Oc2cccc(C3CC3)c2)cn1` [Compound 1.13, 5-(3-cyclopropyl-phenoxy)-N-[2-(2,4-dichlorophenyl)ethyl]-2-methyl-pyridine-4-carboxamide], the inhibition of growth at 20 ppm in experiment [1], in experiment [2], in experiment [5] and in experiment [3] was no less than 80% in each case. In addition, the pest or weed control at 200 ppm in experiment [4] is no less than 50%.
Consider `O=C(NCC1(c2ccc(F)cc2)CCC1)c1cc(Cl)ncc1Oc1cccc(C2CC2)c1` [Compound 1.28, 2-chloro-5-(3-cyclopropyl-phenoxy)-N-[[1-(4-fluorophenyl)cyclobutyl]methyl] pyridine-4-carboxamide], for which the inhibition of growth at 20 ppm in experiment [5] is no less than 80%.
Still for that read-out and setting: the value for `Cc1ccccc1CCNC(=O)c1cc(Cl)ncc1Oc1cccc(C2CC2)c1` [Compound 1.36, 2-chloro-5-(3-cyclopropyl-phenoxy)-N-[2-(o-tolyl)ethyl]pyridine-4-carboxamide] was no less than 80%.
On the same count and under the same terms, under `COc1ccc(CCNC(=O)c2cc(Cl)ncc2Oc2ccccc2)cc1OC` [Compound 1.44, 2-chloro-N-[2-(3,4-dimethoxyphenyl)ethyl]-5-phenoxy-pyridine-4-carboxamide] stands no less than 80%.
`Cc1cccc(Oc2cnc(Cl)cc2C(=O)NCCc2cccc(Cl)c2)c1` [Compound 1.46, 2-chloro-N-[2-(3-chlorophenyl)ethyl]-5-(3-methylphenoxy) pyridine-4-carboxamide]: the inhibition of growth at 20 ppm in experiment [2] and in experiment [5] was no less than 80% each time.
Take `O=C(NC1(Cc2ccccc2)CC1)c1cc(Cl)ncc1Oc1cccc(C2CC2)c1` [Compound 1.49, N-(1-benzylcyclopropyl)-2-chloro-5-(3-cyclopropylphenoxy) pyridine-4-carboxamide]: in experiment [5], the inhibition of growth at 20 ppm is no less than 80%.
The compound `Cc1cc(C)cc(CCNC(=O)c2cc(Cl)ncc2Oc2cccc(C3CC3)c2)c1` [Compound 1.50, 2-chloro-5-(3-cyclopropylphenoxy)-N-[2-(3,5-dimethylphenyl)ethyl]pyridine-4-carboxamide] returned an inhibition of growth at 20 ppm in experiment [5] of no less than 80%.
On to `Cc1ccc(C(F)CNC(=O)c2cc(C)ncc2Oc2cccc(C3CC3)c2)c(Cl)c1` (stereo not shown) [Compound 1.60, N-[2-(2-chloro-4-methyl-phenyl)-2-fluoro-ethyl]-5-(3-cyclopropyl-phenoxy)-2-methyl-pyridine-4-carboxamide], for which the inhibition of growth at 20 ppm in experiment [1], in experiment [2] and in experiment [5] was no less than 80% in each case. This compound came in with a pest or weed control at 200 ppm in experiment [4] of no less than 50%.
For `N#Cc1ccc(Oc2cnc(Cl)cc2C(=O)NCC(F)c2ccc(Cl)cc2Cl)cc1` (stereo not shown) [Compound 1.63, 2-chloro-5-(4-cyanophenoxy)-N-[2-(2,4-dichlorophenyl)-2-fluoro-ethyl]pyridine-4-carboxamide], the inhibition of growth at 20 ppm in experiment [2] and in experiment [5] was no less than 80% throughout.
For the compound `O=C(NCC(F)c1ccc(Cl)cc1Cl)c1cc(Cl)ncc1Oc1cccc(C2CC2)c1F` (stereo not shown) [Compound 1.70, 2-chloro-5-(3-cyclopropyl-2-fluoro-phenoxy)-N-[2-(2,4-dichlorophenyl)-2-fluoro-ethyl]pyridine-4-carboxamide], the inhibition of growth at 20 ppm in experiment [1], in experiment [5] and in experiment [3] was no less than 80% throughout. Moreover, the pest or weed control at 200 ppm in experiment [4] is no less than 50%.
As to `Cc1ccc(C(F)CNC(=O)c2cc(Cl)ncc2Oc2cccc(C3CC3)c2)c(C)c1` (stereo not shown) [Compound 1.78, 2-chloro-5-(3-cyclopropyl-phenoxy)-N-[2-(2,4-dimethylphenyl)-2-fluoro-ethyl]pyridine-4-carboxamide], the inhibition of growth at 20 ppm in experiment [1], in experiment [2] and in experiment [5] was no less than 80% each time.
In the case of `CCc1cncc(Oc2cccc(C3CC3)c2)c1C(=O)NCC(F)c1ccc(Cl)cc1Cl` (stereo not shown) [Compound 1.79, 3-(3-cyclopropyl-phenoxy)-N-[2-(2,4-dichlorophenyl)-2-fluoro-ethyl]-5-ethyl-pyridine-4-carboxamide], the inhibition of growth at 20 ppm in experiment [1], in experiment [2], in experiment [5] and in experiment [3] was no less than 80% in each case. Also, in experiment [4], the pest or weed control at 200 ppm is no less than 50%.
As for `CCc1cc(C(=O)NCC(F)c2ccc(Cl)cc2Cl)c(Oc2cccc(C3CC3)c2)cn1` (stereo not shown) [Compound 1.81, 5-(3-cyclopropyl-phenoxy)-N-[2-(2,4-dichlorophenyl)-2-fluoro-ethyl]-2-ethyl-pyridine-4-carboxamide], the inhibition of growth at 20 ppm in experiment [1], in experiment [2], in experiment [5] and in experiment [3] was no less than 80% in each case. This compound displayed a pest or weed control at 200 ppm in experiment [4] of no less than 50%.
In the case of `O=C(NCC(F)c1ccc(Cl)cc1Cl)c1c(Oc2cccc(C3CC3)c2)cncc1Oc1cccc(C2CC2)c1` (stereo not shown) [Compound 1.84, 3,5-bis(3-cyclopropyl-phenoxy)-N-[2-(2,4-dichlorophenyl)-2-fluoro-ethyl]pyridine-4-carboxamide], the inhibition of growth at 20 ppm in experiment [1], in experiment [2] and in experiment [5] was no less than 80% in each case. This compound also returned a pest or weed control at 200 ppm in experiment [4] of no less than 50%.
With `C#Cc1cc(C(=O)NCC(F)c2ccc(Cl)cc2Cl)c(Oc2cccc(C3CC3)c2)cn1` (stereo not shown) [Compound 1.86, 5-(3-cyclopropyl-phenoxy)-N-[2-(2,4-dichlorophenyl)-2-fluoro-ethyl]-2-ethynyl-pyridine-4-carboxamide], the inhibition of growth at 20 ppm in experiment [1], in experiment [2] and in experiment [5] was no less than 80% each time. In experiment [6], this compound showed a pest or weed control at 200 ppm of no less than 80%.
Consider `COc1cncc(Oc2cccc(C3CC3)c2)c1C(=O)NCC(F)c1ccc(Cl)cc1Cl` (stereo not shown) [Compound 1.91, 3-(3-cyclopropyl-phenoxy)-N-[2-(2,4-dichlorophenyl)-2-fluoro-ethyl]-5-methoxy-pyridine-4-carboxamide], for which the inhibition of growth at 20 ppm in experiment [1] and in experiment [2] was no less than 80% throughout. Besides, the pest or weed control at 200 ppm in experiment [4] was no less than 50%.
Turning to `O=C(NCC(F)c1ccc(Cl)cc1Cl)c1c(O)cncc1Oc1cccc(C2CC2)c1` (stereo not shown) [Compound 1.96, 3-(3-cyclopropyl-phenoxy)-N-[2-(2,4-dichlorophenyl)-2-fluoro-ethyl]-5-hydroxy-pyridine-4-carboxamide], the inhibition of growth at 20 ppm in experiment [1], in experiment [2], in experiment [5] and in experiment [3] was no less than 80% in each case.

These data come from patent US20240182420A1, “MICROBIOCIDAL ISONICOTINIC AMIDE DERIVATIVES” (SYNGENTA CROP PROTECTION AG, priority 2021, published 2024).
